{"source": "patent US20200405715A1", "about": "“COMPOSITIONS AND METHODS FOR TREATING CANCER AND INFLAMMATORY DISEASES” (University of Pittsburgh - Of the Commonwealth System of …, priority 2016, published 2020)", "data": [{"system": "HepG2 tumor implants", "assay": "HepG2 tumor implants in nude mice, tumor growth", "assay_type": "in vivo, athymic nude mice", "details": "compounds in drinking water (15 mg/kg/d), start at tumor size 0.1 cm^3 (FIG. 8)", "procedure": "Mice were implanted with HepG2 cells (10^6 cells) through subcutaneous injection. 2 weeks later, once tumor size reaches ˜0.1 cm^3, mice were randomized and the treatment began by adding compounds to the drinking water ([…]). Tested compounds were: Vehicle, 3-(decylamino)-5-phenylcyclohex-2-en-1-one (BC1558), 3-(dibenzylamino)-5-phenylcyclohex-2-en-1-one (BC1634) or 3-((4-phenoxybenzyl)amino)-5-phenylcyclohex-2-en-1-one (BC1653). Tumor volume measurements over time were graphed (n=4-5 mice/group, *P<0.05 versus Vehicle).\nAs a complementary in vivo model, tumorogenicity was further assessed after implanting HepG2 cells along with 3-(decylamino)-5-phenylcyclohex-2-en-1-one, 3-(dibenzylamino)-5-phenylcyclohex-2-en-1-one, 3-((4-phenoxybenzyl)amino)-5-phenylcyclohex-2-en-1-one treatment in athymic nude mice. Mice were implanted with HepG2 cells through subcutaneous injection. Two weeks later, once tumor size reached 0.1 cm^3, the mice were randomized and the treatment began by adding compounds to the drinking water (15 mg/kg/d).", "values": [{"smiles": "O=C1C=C(NCc2ccc(Oc3ccccc3)cc2)CC(c2ccccc2)C1", "note": "(stereo not drawn) [BC1653, 3-((4-phenoxybenzyl)amino)-5-phenylcyclohex-2-en-1-one]", "tumor size compared to the vehicle": "Significantly reduced tumor size"}, {"smiles": "O=C1C=C(N(Cc2ccccc2)Cc2ccccc2)CC(c2ccccc2)C1", "note": "(stereo not drawn) [BC1634, 3-(dibenzylamino)-5-phenylcyclohex-2-en-1-one]", "tumor size compared to the vehicle": "Significantly reduced tumor size"}]}, {"system": "DSS induced colonic inflammation", "assay": "DSS induced colitis model", "assay_type": "in vivo, C57BL6 mice", "details": "DSS in water, compounds in drinking water at 10 mg/kg/d (FIG. 12A-B)", "procedure": "(§1) FIGS. 12A-12D show DCN1 inhibitors reduce DSS induced colonic inflammation, specifically the following experimental results C57BL6 mice were fed with water ad lib containing 3% dextran sulfate sodium (DSS) for six days. DCN1 inhibitors were administered into drinking water at 10 mg/kg/d, starting at day 1. […] The data represent n=4 mice/group, *P<0.05 versus CON.\n(§2) Also tested were 3-(decylamino)-5-phenylcyclohex-2-en-1-one (BC1558), 3-(dibenzylamino)-5-phenylcyclohex-2-en-1-one (BC1634) and 3-((4-phenoxybenzyl)amino)-5-phenylcyclohex-2-en-1-one (BC1653) in a mouse colitis model to confirm its anti-inflammatory activity. Briefly, C57BL6 mice were fed with water containing 3.5% […] and colonic length was measured. DSS produced a significant decrease in colon length in mice, consistent with colonic inflammation (FIG. 12A-B). […] Colonic tissue cytokine levels were further analyzed.", "values": [{"smiles": "O=C1C=C(NCc2ccc(Oc3ccccc3)cc2)CC(c2ccccc2)C1", "note": "(stereo not drawn) [BC1653, 3-((4-phenoxybenzyl)amino)-5-phenylcyclohex-2-en-1-one]", "colon length compared vehicle": "significant increase"}]}, {"system": "DSS induced colonic inflammation", "assay": "DSS induced colitis model", "assay_type": "in vivo, C57BL6 mice", "details": "DSS in water, compounds in drinking water at 10 mg/kg/d (FIG. 12C-D)", "procedure": "as §1, §2", "values": [{"smiles": "O=C1C=C(NCc2ccc(Oc3ccccc3)cc2)CC(c2ccccc2)C1", "note": "(stereo not drawn) [BC1653, 3-((4-phenoxybenzyl)amino)-5-phenylcyclohex-2-en-1-one]", "IL1β and IL6 levels in colonic tissue compared to vehicle": "large reduction"}]}, {"system": "HepG2 cells", "assay": "HepG2 cell proliferation (CellTiter-Glo Luminescent Cell Viability Assay)", "assay_type": "cell-based", "details": "Homo sapiens, 96 h, ATP production, n=3, read-out: IC50Proliferation", "procedure": "Cell proliferation were then measured by CellTiter-Glo® Luminescent Cell Viability Assay (n=3).\n4KHepG2 cells were seeded in 96 well plates for overnight. Compounds listed in Table 3 were then added to each well at various concentrations. 96 h later, cell proliferation was measured by ATP production using a CellTiter-Glo® Luminescent Cell Viability Assay (Promega).\n3-(pentylamino)-5-phenylcyclohex-2-en-1-one was modified by adding a different sidechain. These novel compounds were tested further in an in vitro proliferation assay using ATPLite Cell Proliferation kit. […] Others lost activity in reducing Cullin Neddylation and inhibiting cell proliferation (FIG. 3C-D).", "units": {"IC50": "µM"}, "values": [{"smiles": "O=C1C=C(NCc2ccc(OC3CCCC3)cc2)CC(c2ccccc2)C1", "note": "(stereo not drawn) [BC1666]", "IC50": "< 1"}, {"smiles": "O=C1C=C(NCc2ccc(CN3CCCCC3)cc2)CC(c2ccccc2)C1", "note": "(stereo not drawn) [BC1665]", "IC50": "> 10"}, {"smiles": "O=C1C=C(NCC2CCCCC2)CC(c2ccccc2)C1", "note": "(stereo not drawn) [BC1633]", "IC50": "> 10"}, {"smiles": "O=C1C=C(NC2C[C@@H]3CCC2C3)CC(c2ccccc2)C1", "note": "(stereo partly drawn) [BC1550]", "IC50": "1 to 10"}, {"smiles": "O=C1C=C(NCc2cccc(-c3ccccc3)c2)CC(c2ccccc2)C1", "note": "(stereo not drawn) [BC1631]", "IC50": "< 1"}, {"smiles": "O=C1C=C(NCc2ccc(Oc3ccccc3)cc2)CC(c2ccccc2)C1", "note": "(stereo not drawn) [BC1653, 3-((4-phenoxybenzyl)amino)-5-phenylcyclohex-2-en-1-one]", "IC50": "< 1"}, {"smiles": "CN1CCC(c2ccc(CNC3=CC(=O)CC(c4ccccc4)C3)cc2)CC1", "note": "(stereo not drawn) [BC1664]", "IC50": "> 10"}, {"smiles": "O=C1C=C(NCc2cnc(Nc3ccccc3)nc2)CC(c2ccccc2)C1", "note": "(stereo not drawn) [BC1656]", "IC50": "> 10"}, {"smiles": "CCCCCCCCCNC1=CC(=O)CC(c2ccccc2)C1", "note": "(stereo not drawn) [BC1556]", "IC50": "< 1"}, {"smiles": "O=C1C=C(NCc2ccc(OC3CCCCC3)cc2)CC(c2ccccc2)C1", "note": "(stereo not drawn) [BC1663]", "IC50": "< 1"}, {"smiles": "CCCCCCCNC1=CC(=O)CC(c2ccccc2)C1", "note": "(stereo not drawn) [BC1552]", "IC50": "< 1"}, {"smiles": "Cc1cccc(N2CCC(NC3=CC(=O)CC(c4ccccc4)C3)CC2)c1", "note": "(stereo not drawn) [BC1654]", "IC50": "> 10"}, {"smiles": "CC1(C)C2C[C@@H]1CCC2CNC1=CC(=O)CC(c2ccccc2)C1", "note": "(stereo partly drawn) [BC1627]", "IC50": "1 to 10"}, {"smiles": "O=C1C=C(NCc2cnc(-c3ccccc3)nc2)CC(c2ccccc2)C1", "note": "(stereo not drawn) [BC1657]", "IC50": "1 to 10"}, {"smiles": "O=C1C=C(NCc2ccc(Oc3ccc(F)cc3)cc2)CC(c2ccccc2)C1", "note": "(stereo not drawn) [BC1662]", "IC50": "< 1"}, {"smiles": "O=C1C=C(NCc2ccc(CN3CCOCC3)cc2)CC(c2ccccc2)C1", "note": "(stereo not drawn) [BC1668]", "IC50": "1 to 10"}, {"smiles": "CCCCCCCCNC1=CC(=O)CC(c2ccccc2)C1", "note": "(stereo not drawn) [BC1554]", "IC50": "< 1"}, {"smiles": "CCCCCCCCCCCCCCCCNC1=CC(=O)CC(c2ccccc2)C1", "note": "(stereo not drawn) [BC1564]", "IC50": "> 10"}, {"smiles": "O=C1C=C(NCc2ccccc2)CC(c2ccccc2)C1", "note": "(stereo not drawn) [BC1548]", "IC50": "1 to 10"}, {"smiles": "COc1ccc(Oc2ccc(CNC3=CC(=O)CC(c4ccccc4)C3)cc2)cc1", "note": "(stereo not drawn) [BC1660]", "IC50": "1 to 10"}, {"smiles": "CC1CC(C)CN(Cc2ccc(CNC3=CC(=O)CC(c4ccccc4)C3)cc2)C1", "note": "(stereo not drawn) [BC1667]", "IC50": "> 10"}, {"smiles": "O=C1C=C(NC(c2ccccc2)c2ccccc2)CC(c2ccccc2)C1", "note": "(stereo not drawn) [BC1621]", "IC50": "> 10"}, {"smiles": "CCCCCCCCCCNC1=CC(=O)CC(c2ccco2)C1", "note": "(stereo not drawn) [BC1646]", "IC50": "< 1"}, {"smiles": "COc1cc(CNC2=CC(=O)CC(c3ccccc3)C2)ccc1OC1CCCC1", "note": "(stereo not drawn) [BC1669]", "IC50": "< 1"}, {"smiles": "CCC(C)NC1=CC(=O)CC(c2ccccc2)C1", "note": "(stereo not drawn) [BC1546]", "IC50": "> 10"}, {"smiles": "O=C1C=C(NC23CC4C[C@H](C2)C[C@@H](C4)C3)CC(c2ccccc2)C1", "note": "(stereo partly drawn) [BC1549]", "IC50": "> 10"}, {"smiles": "CCCCCCCCCCNC1=CC(=O)CC(c2ccc3c(c2)OCO3)C1", "note": "(stereo not drawn) [BC1644]", "IC50": "> 10"}, {"smiles": "CC(C)CCNC1=CC(=O)CC(c2ccccc2)C1", "note": "(stereo not drawn) [BC1532]", "IC50": "1 to 10"}, {"smiles": "O=C1C=C(NCc2nc3ccccc3[nH]2)CC(c2ccccc2)C1", "note": "(stereo not drawn) [BC1658]", "IC50": "> 10"}, {"smiles": "CCCCCCCCCCCNC1=CC(=O)CC(c2ccccc2)C1", "note": "(stereo not drawn) [BC1560]", "IC50": "< 1"}, {"smiles": "O=C1C=C(Nc2cnc(-c3ccccc3)nc2)CC(c2ccccc2)C1", "note": "(stereo not drawn) [BC1655]", "IC50": "> 10"}, {"smiles": "CCCCCCCCCCCCNC1=CC(=O)CC(c2ccccc2)C1", "note": "(stereo not drawn) [BC1562]", "IC50": "< 1"}, {"smiles": "O=C1C=C(NCc2ccc3oc4ccccc4c3c2)CC(c2ccccc2)C1", "note": "(stereo not drawn) [BC1670]", "IC50": "1 to 10"}, {"smiles": "Cc1ccccc1-c1cccc(CNC2=CC(=O)CC(c3ccccc3)C2)c1", "note": "(stereo not drawn) [BC1640]", "IC50": "1 to 10"}, {"smiles": "O=C1C=C(NC2CCCCC2)CC(c2ccccc2)C1", "note": "(stereo not drawn) [BC1534]", "IC50": "> 10"}, {"smiles": "O=C1C=C(NCc2cccc(-c3ncccn3)c2)CC(c2ccccc2)C1", "note": "(stereo not drawn) [BC1650]", "IC50": "1 to 10"}, {"smiles": "O=C1C=C(NCc2cccc(Oc3ccccc3)c2)CC(c2ccccc2)C1", "note": "(stereo not drawn) [BC1651]", "IC50": "< 1"}, {"smiles": "O=C1C=C(NC2CCCCCCCCCCC2)CC(c2ccccc2)C1", "note": "(stereo not drawn) [BC1623]", "IC50": "> 10"}, {"smiles": "Cc1ccccc1-c1cccc(CNC2=CC(=O)CC(c3ccc4c(c3)OCO4)C2)c1", "note": "(stereo not drawn) [BC1641]", "IC50": "> 10"}, {"smiles": "O=C1C=C(NCCc2ccccc2)CC(c2ccccc2)C1", "note": "(stereo not drawn) [BC1535]", "IC50": "1 to 10"}, {"smiles": "CCCCCCCCCCNC1=CC(=O)CC(c2ccc(F)cc2)C1", "note": "(stereo not drawn) [BC1648]", "IC50": "1 to 10"}, {"smiles": "O=C1C=C(NCc2ccc(-c3ccccc3)cc2)CC(c2ccccc2)C1", "note": "(stereo not drawn) [BC1629]", "IC50": "< 1"}, {"smiles": "CC(NC1=CC(=O)CC(c2ccccc2)C1)c1ccc(Oc2ccccc2)cc1", "note": "(stereo not drawn) [BC1661]", "IC50": "> 10"}, {"smiles": "CCCCCNC1=CC(=O)CC(c2ccccc2)C1", "note": "(stereo not drawn) [BC1526]", "IC50": "1 to 10"}, {"smiles": "O=C1C=C(NC2CCC2)CC(c2ccccc2)C1", "note": "(stereo not drawn) [BC1625]", "IC50": "> 10"}, {"smiles": "O=C1C=C(NCc2ccc3[nH]c4ccccc4c3c2)CC(c2ccccc2)C1", "note": "(stereo not drawn) [BC1659]", "IC50": "< 1"}]}, {"system": "Nedd8-cullin", "assay": "Cullin neddylation, protein immunoblotting in HepG2 cells", "assay_type": "cell-based", "details": "48 h at 10 uM (FIG. 2)", "description": "Cells were then collected and assayed for protein immunoblotting. […]\nDCN1 protein is believed to harbor a UBC12 binding pocket. Scott et al, Cell 757:1671-84 (2014). […] Scott et al. (2014). The N-terminal acetylation acts as an avidity enhancer within an interconnected multiprotein complex. Science, 554:674-8 (2011). Specifically, n-terminal of UBC12 is acetylated (FIG. 1A, yellow) and completely buried inside the hydrophobic pocket within DCN1 (4gao.PDB, FIG. 1B). Small molecule inhibition of the DCN1 hydrophobic pocket would presumably disrupt UBC12 binding, and thus disrupt Neddylation of Cullin protein. Potential ligands were assessed that might fit the DCN1 domain cavities (FIG. 1B). 3-(pentylamino)-5-phenylcyclohex-2-en-1-one was selected for future testing (FIG. 1C). […] MLN4924 was used as a positive control.", "values": [{"smiles": "CCCCCNC1=CC(=O)CC(c2ccccc2)C1", "note": "(stereo not drawn) [3-(pentylamino)-5-phenylcyclohex-2-en-1-one]", "reducing cullin1 neddylation": "good activity"}]}]}
